ChEMBL document CHEMBL3885861, “Open TG-GATES”

Species on record: Rattus norvegicus
Experiment: Open TG-GATES - Regimen: Single
Assay type: toxicity, organism-based, Sprague-Dawley
Parameters: regimen Single, gender Male, age 6 weeks
Conditions: in vivo, po, 30 mg/kg, route gavage, dose level Low; for APTT / Bas / Eos / Fbg / Hb / Ht / Lym / MCH / MCHC / MCV / Mono / Neu / PT / Plat / RBC / Ret / WBC: tissue Blood; for KIDNEY_L / KIDNEY_R / KIDNEY_TOTAL: tissue Kidney; for LIVER: tissue Liver; for A/G / ALP / ALT / AST / BUN / CRE / Ca / Cl / DBIL / GLC / IP / K / LDH / Na / PL / RALB / TBIL / TC / TG / TP / gamma-GTP: tissue Plasma

CCOC(=O)C(C)(C)Oc1ccc(Cl)cc1 [CLOFIBRATE]
TERMINAL_BW (3 h): 228.4 g
APTT (3 h): 19.1 s
Bas (3 h): 0%
Eos (3 h): 1%
Fbg (3 h): 234.4 mg/dL
Hb (3 h): 13.3 g/dL
Ht (3 h): 38.4%
Lym (3 h): 80.4%
MCH (3 h): 21.8 pg
MCHC (3 h): 34.6%
MCV (3 h): 62.9 fL
Mono (3 h): 2.6%
Neu (3 h): 15.6%
PT (3 h): 12.3 s
Plat (3 h): 121.4 x10_4/uL
RBC (3 h): 611.2 x10_4/ul
Ret (3 h): 7.5%
WBC (3 h): 87.8 x10_2/uL
KIDNEY_L (3 h): 1 g
KIDNEY_R (3 h): 1 g
KIDNEY_TOTAL (3 h): 2 g
LIVER (3 h): 10.5 g
A/G (3 h): 1.6
ALP (3 h): 1038.6 IU/L
ALT (3 h): 38.8 IU/L
AST (3 h): 71 IU/L
BUN (3 h): 12.2 mg/dL
CRE (3 h): 0.3 mg/dL
Ca (3 h): 11.2 mg/dL
Cl (3 h): 102.4 meq/L
DBIL (3 h): 0.4 mg/dL
GLC (3 h): 199.2 mg/dL
IP (3 h): 9 mg/dL
K (3 h): 3.9 meq/L
LDH (3 h): 199.6 IU/L
Na (3 h): 139.6 meq/L
PL (3 h): 178.4 mg/dL
RALB (3 h): 3.4 g/dL
TBIL (3 h): 0.4 mg/dL
TC (3 h): 84 mg/dL
TG (3 h): 194 mg/dL
TP (3 h): 5.6 g/dL
gamma-GTP (3 h): 1.2 IU/L
TERMINAL_BW (6 h): 224.5 g
APTT (6 h): 18.6 s
Bas (6 h): 0%
Eos (6 h): 1%
Fbg (6 h): 230 mg/dL
Hb (6 h): 13.5 g/dL
Ht (6 h): 38.9%
Lym (6 h): 78.4%
MCH (6 h): 21.7 pg
MCHC (6 h): 34.7%
MCV (6 h): 62.5 fL
Mono (6 h): 2.6%
Neu (6 h): 17.2%
PT (6 h): 12.3 s
Plat (6 h): 125.7 x10_4/uL
RBC (6 h): 623.2 x10_4/ul
Ret (6 h): 7.3%
WBC (6 h): 115.7 x10_2/uL
KIDNEY_L (6 h): 1 g
KIDNEY_R (6 h): 1 g
KIDNEY_TOTAL (6 h): 1.9 g
LIVER (6 h): 9.8 g
A/G (6 h): 1.6
ALP (6 h): 1119.8 IU/L
ALT (6 h): 35.4 IU/L
AST (6 h): 69.2 IU/L
BUN (6 h): 7.8 mg/dL
CRE (6 h): 0.4 mg/dL
Ca (6 h): 10.7 mg/dL
Cl (6 h): 103.8 meq/L
DBIL (6 h): 0.1 mg/dL
GLC (6 h): 194.6 mg/dL
IP (6 h): 9 mg/dL
K (6 h): 4 meq/L
LDH (6 h): 273 IU/L
Na (6 h): 140.8 meq/L
PL (6 h): 143.6 mg/dL
RALB (6 h): 3.5 g/dL
TBIL (6 h): 0.2 mg/dL
TC (6 h): 73 mg/dL
TG (6 h): 88 mg/dL
TP (6 h): 5.7 g/dL
gamma-GTP (6 h): 1.4 IU/L
TERMINAL_BW (9 h): 223 g
APTT (9 h): 18.8 s
Bas (9 h): 0%
Eos (9 h): 1%
Fbg (9 h): 228.4 mg/dL
Hb (9 h): 13.2 g/dL
Ht (9 h): 37.7%
Lym (9 h): 79.8%
MCH (9 h): 21.5 pg
MCHC (9 h): 34.9%
MCV (9 h): 61.7 fL
Mono (9 h): 3.2%
Neu (9 h): 15.8%
PT (9 h): 12.8 s
Plat (9 h): 137.4 x10_4/uL
RBC (9 h): 611.4 x10_4/ul
Ret (9 h): 7.4%
WBC (9 h): 101.8 x10_2/uL
KIDNEY_L (9 h): 1 g
KIDNEY_R (9 h): 1 g
KIDNEY_TOTAL (9 h): 1.9 g
LIVER (9 h): 9.1 g
A/G (9 h): 1.6
ALP (9 h): 814.2 IU/L
ALT (9 h): 27.6 IU/L
AST (9 h): 61.4 IU/L
BUN (9 h): 11.2 mg/dL
CRE (9 h): 0.4 mg/dL
Ca (9 h): 10.5 mg/dL
Cl (9 h): 101.6 meq/L
DBIL (9 h): 0.076 mg/dL
GLC (9 h): 216 mg/dL
IP (9 h): 11.1 mg/dL
K (9 h): 3.9 meq/L
LDH (9 h): 238.8 IU/L
Na (9 h): 140.2 meq/L
PL (9 h): 127.2 mg/dL
RALB (9 h): 3.4 g/dL
TBIL (9 h): 0.1 mg/dL
TC (9 h): 65.2 mg/dL
TG (9 h): 54.2 mg/dL
TP (9 h): 5.5 g/dL
gamma-GTP (9 h): 1 IU/L
TERMINAL_BW (24 h): 238.3 g
APTT (24 h): 20.6 s
Bas (24 h): 0%
Eos (24 h): 1%
Fbg (24 h): 215.6 mg/dL
Hb (24 h): 13.5 g/dL
Ht (24 h): 39%
Lym (24 h): 82%
MCH (24 h): 21.8 pg
MCHC (24 h): 34.8%
MCV (24 h): 62.7 fL
Mono (24 h): 2.8%
Neu (24 h): 13.6%
PT (24 h): 12.6 s
Plat (24 h): 123.8 x10_4/uL
RBC (24 h): 620.8 x10_4/ul
Ret (24 h): 6.6%
WBC (24 h): 103.6 x10_2/uL
KIDNEY_L (24 h): 1 g
KIDNEY_R (24 h): 1 g
KIDNEY_TOTAL (24 h): 2 g
LIVER (24 h): 11.1 g
A/G (24 h): 1.7
ALP (24 h): 1108.2 IU/L
ALT (24 h): 34.2 IU/L
AST (24 h): 66.4 IU/L
BUN (24 h): 13.8 mg/dL
CRE (24 h): 0.4 mg/dL
Ca (24 h): 10.8 mg/dL
Cl (24 h): 102.8 meq/L
DBIL (24 h): 0.084 mg/dL
GLC (24 h): 203.8 mg/dL
IP (24 h): 7.1 mg/dL
K (24 h): 3.9 meq/L
LDH (24 h): 243 IU/L
Na (24 h): 140.6 meq/L
PL (24 h): 141 mg/dL
RALB (24 h): 3.4 g/dL
TBIL (24 h): 0.1 mg/dL
TC (24 h): 65 mg/dL
TG (24 h): 110.4 mg/dL
TP (24 h): 5.5 g/dL
gamma-GTP (24 h): 0.6 IU/L
